Source: article PMC9386811 (ACS Omega, 2022)

These molecules were tested against alpha-glucosidase from Saccharomyces cerevisiae (Baker's yeast) (Saccharomyces cerevisiae, UniProt P53341) (assay: In vitro α-glucosidase inhibitory activity).
Assay type: biochemical

alpha-glucosidase from Saccharomyces cerevisiae (Baker's yeast), sequence (P53341 whole entry): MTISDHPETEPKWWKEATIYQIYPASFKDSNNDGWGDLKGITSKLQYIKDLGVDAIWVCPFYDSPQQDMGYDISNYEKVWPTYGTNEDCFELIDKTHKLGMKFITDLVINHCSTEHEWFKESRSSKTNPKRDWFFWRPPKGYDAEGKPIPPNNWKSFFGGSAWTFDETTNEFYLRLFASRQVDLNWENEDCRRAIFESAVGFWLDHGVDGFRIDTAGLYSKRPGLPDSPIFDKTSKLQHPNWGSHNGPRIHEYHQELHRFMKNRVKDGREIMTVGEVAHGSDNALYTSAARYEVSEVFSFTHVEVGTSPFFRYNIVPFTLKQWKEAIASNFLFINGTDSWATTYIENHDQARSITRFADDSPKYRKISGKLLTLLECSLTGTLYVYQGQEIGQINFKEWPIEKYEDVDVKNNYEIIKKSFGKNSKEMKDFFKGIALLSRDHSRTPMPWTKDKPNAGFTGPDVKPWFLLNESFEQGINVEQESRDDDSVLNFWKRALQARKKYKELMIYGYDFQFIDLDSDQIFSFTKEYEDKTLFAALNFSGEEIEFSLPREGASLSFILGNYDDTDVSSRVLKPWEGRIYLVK

First: CCCCCCSc1nc2ccccc2n1CC(=O)NN1C(=O)CSC1c1ccc([N+](=O)[O-])cc1 (stereo not drawn) [Compound 5, 2-[2-(Hexylthio)-1H-benzo[d]imidazole-1-yl]-N-[2-(4-nitrophenyl)-4-oxothiazolidin-3-yl]acetamide]
Second: CCCCCCSc1nc2ccccc2n1CC(=O)NN1C(=O)CSC1c1ccc(F)cc1 (stereo not drawn) [Compound 23, 2-[2-(Hexylthio)-1H-benzo[d]imidazole-1-yl]-N-[2-(4-fluorophenyl)-4-oxothiazolidin-3-yl]acetamide]
The IC50 of the first is 5.1-fold lower: 5.22 ± 0.14 µM for the first, 26.38 ± 0.18 µM for the second. The first is the more potent here.

Going from `CCCCCCSc1nc2ccccc2n1CC(=O)NN1C(=O)CSC1c1ccc(C=O)cc1` (stereo not drawn) [Compound 8, 2-[2-(Hexylthio)-1H-benzo[d]imidazole-1-yl]-N-[2-(4-formylphenyl)-4-oxothiazolidin-3-yl]acetamide] to `CCCCCCSc1nc2ccccc2n1CC(=O)NN1C(=O)CSC1c1ccc(C)cc1` (stereo not drawn) [Compound 24, 2-[2-(Hexylthio)-1H-benzo[d]imidazole-1-yl)-N-[4-oxo-2-(p-tolyl)thiazolidin-3-yl]acetamide], the IC50 rises from 5.69 ± 0.1 µM to 23.7 ± 0.25 µM (4.2-fold).

Compared with `CCCCCCSc1nc2ccccc2n1CC(=O)NN1C(=O)CSC1c1cccc(OC)c1O` (stereo not drawn) [Compound 11, 2-[2-(Hexylthio)-1H-benzo[d]imidazole-1-yl]-N-[-2-(2-hydroxy-3-methoxyphenyl)-4-oxothiazolidin-3-yl]acetamide], `CCCCCCSc1nc2ccccc2n1CC(=O)NN1C(=O)CSC1c1ccccc1OC` (stereo not drawn) [Compound 15, 2-[2-(Hexylthio)-1H-benzo[d]imidazole-1-yl]-N-[2-(2-methoxyphenyl)-4-oxothiazolidin-3-yl]acetamide] is 3.7-fold higher in IC50: 24.1 ± 0.3 µM for the first, 89.28 ± 0.52 µM for the second. The first is the more potent here.

`CCCCCCSc1nc2ccccc2n1CC(=O)NN1C(=O)CSC1c1ccc(Cl)cc1Cl` (stereo not drawn) [Compound 12, 2-[2-(Hexylthio)-1H-benzo[d]imidazole-1-yl]-N-[2-(2,4-dichlorophenyl)-4-oxothiazolidin-3-yl]acetamide] and `CCCCCCSc1nc2ccccc2n1CC(=O)NN1C(=O)CSC1c1ccc(C)o1` (stereo not drawn) [Compound 19, 2-[2-(Hexylthio)-1H-benzo[d]imidazole-1-yl]-N-[2-(5-methylfuran-2-yl)-4-oxothiazolidin-3-yl]acetamide] are within 1.5-fold of each other in IC50: 33.4 ± 0.38 µM for the first, 39.06 ± 0.27 µM for the second.

First: CCCCCCSc1nc2ccccc2n1CC(=O)NN1C(=O)CSC1c1ccc(O)c(OC)c1 (stereo not drawn) [Compound 14, 2-[2-(Hexylthio)-1H-benzo[d]imidazole-1-yl]-N-[2-(4-hydroxy-3-methoxyphenyl)-4-oxothiazolidin-3-yl]acetamide]
Second: CCCCCCSc1nc2ccccc2n1CC(=O)NN1C(=O)CSC1c1ccc(OC)cc1 (stereo not drawn) [Compound 17, 2-[2-(Hexylthio)-1H-benzo[d]imidazole-1-yl]-N-[2-(4-methoxyphenyl)-4-oxothiazolidin-3-yl]acetamide]
The IC50 of the first is 6.2-fold lower: 10.2 ± 0.12 µM for the first, 63.68 ± 0.52 µM for the second. The first is the more potent here.

`CCCCCCSc1nc2ccccc2n1CC(=O)NN1C(=O)CSC1c1cccs1` (stereo not drawn) [Compound 21, 2-[2-(Hexylthio)-1H-benzo[d]imidazole-1-yl]-N-[4-oxo-2-(thiophen-2-yl)-thiazolidin-3-yl]acetamide] and `CCCCCCSc1nc2ccccc2n1CC(=O)NN1C(=O)CSC1c1ccc2ccccc2c1` (stereo not drawn) [Compound 22, 2-[2-(Hexylthio)-1H-benzo[d]imidazole-1-yl]-N-[2-(naphthalen-2-yl)-4-oxothiazolidin-3-yl]acetamide] are within 1.5-fold of each other in IC50: 54.4 ± 0.65 µM for the first, 41 ± 0.36 µM for the second.
